Test results taken from EP1570862A1, “Highly soluble binary cyclodextrin inclusion complexes” (priority 2004, dated 2005).
Values after ≈ are worked out from the molar mass of the structure shown.

Assay: physchem
Details: water
Experimental: The samples were mechanically shaken in a thermostatic bath shaker (~ 200 rpm) to attain thermal equilibrium, an aliquot was centrifuged (when necessary) and filtered using a 0.45µm filter (cellulose acetate or cellulose nitrate, Advantec MFS Inc., Duplin, USA).
The samples were shaken for different time intervals.

## OC[C@H]1O[C@@H]2O[C@H]3[C@H](O)[C@@H](O)[C@@H](O[C@H]4[C@H](O)[C@@H](O)[C@@H](O[C@H]5[C@H](O)[C@@H](O)[C@@H](O[C@H]6[C@H](O)[C@@H](O)[C@@H](O[C@H]7[C@H](O)[C@@H](O)[C@@H](O[C@H]8[C@H](O)[C@@H](O)[C@@H](O[C@H]1[C@H](O)[C@H]2O)O[C@@H]8CO)O[C@@H]7CO)O[C@@H]6CO)O[C@@H]5CO)O[C@@H]4CO)O[C@@H]3CO [β-cyclodextrin]
  solubility thermodynamic: 115 mM (≈ 131 mg/mL)
